# Strand notation (5' to 3'): a small letter for the sugar, then the base; units joined by * are phosphorothioate-linked, units joined directly phosphodiester-linked; [ ] holds rarer units or linkages, { } end groups; capitals alone tell only the bases. k = constrained ethyl (cEt); [5mC] = 5-methylcytosine; d = 2'-deoxy (DNA)
# System: human SMAD7 mRNA
# Assay: Antisense inhibition of human SMAD7 mRNA expression in Hep3B cells by 3-10-3 cEt gapmers, 10,000 nM, electroporation (Example 2)
# Type: cell-based
# Details: Hep3B cells, 10,000 nM antisense oligonucleotide, electroporation, approximately 24 hours, RT-PCR primer probe set RTS5062, relative to untreated control cells
# Method in brief: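 SMAD7 mRNA was measured by real-time PCR (RTS5062) with RiboGreen total-RNA normalization, about 24 h after 10,000 nM gapmer was delivered by electroporation into Hep3B cells at 20,000 per well. Gapmers were 16-mer 3-10-3 cEt, fully phosphorothioate; values are % inhibition versus untreated controls.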
row,Substance,% Inhibition [%]
1,800077 (antisense k[5mC]*k[5mC]*kT*dT*dA*dA*d[5mC]*dA*dA*dA*dG*d[5mC]*dT*kT*k[5mC]*k[5mC]) [compound 800077],36
2,800091 (antisense kT*kG*kA*d[5mC]*dA*d[5mC]*dA*dG*d[5mC]*d[5mC]*dA*dG*dA*kG*k[5mC]*kT) [compound 800091],0

# Same assay, conditions: Hep3B cells, electroporation with 10,000 nM antisense oligonucleotide, approximately 24 hours, RTS5062, percent inhibition of SMAD7 mRNA relative to untreated control cells
row,Substance,% Inhibition [%]
1,799547 (kT*k[5mC]*k[5mC]*dT*dA*d[5mC]*dT*dG*dT*dT*dG*dG*d[5mC]*kA*kG*kT; antisense) [compound 799547],50
2,799830 (antisense kG*kA*kA*dG*dA*dG*dT*dT*dT*dG*d[5mC]*dG*dA*kG*k[5mC]*k[5mC]) [compound 799830],55
3,799745 (antisense kG*kG*k[5mC]*dA*dG*dT*dT*dA*dA*d[5mC]*dA*dT*dT*kT*k[5mC]*kA) [compound 799745],43
4,799802 (k[5mC]*k[5mC]*kA*dG*dA*d[5mC]*dA*dG*dG*d[5mC]*d[5mC]*dA*dG*kG*kG*k[5mC]; antisense) [compound 799802],20

# Same assay, conditions: Hep3B cells, electroporation with 10,000 nM antisense oligonucleotide, approximately 24 hours, SMAD7 mRNA by RT-PCR (RTS5062), relative to untreated control cells
row,Substance,% Inhibition [%]
1,798863 (kG*kG*kG*dT*dT*dG*dT*d[5mC]*d[5mC]*dA*dG*dT*dG*kT*kG*kG; antisense) [compound 798863],41
2,799490 (antisense kT*kT*kA*dA*dA*dT*dG*dG*dT*dG*dT*dA*dT*kA*k[5mC]*k[5mC]) [compound 799490],0
3,800041 (kG*k[5mC]*k[5mC]*dA*d[5mC]*d[5mC]*dT*dA*dG*dG*d[5mC]*dA*dA*kG*kG*kG; antisense) [compound 800041],0
4,798904 (kT*kT*kG*dA*dA*dG*dA*dT*dG*dA*d[5mC]*d[5mC]*dT*k[5mC]*kT*kA; antisense) [compound 798904],23
5,830113 (kA*kG*k[5mC]*d[5mC]*d[5mC]*d[5mC]*dA*dT*dT*d[5mC]*dA*dT*dT*kA*kA*kG; antisense) [compound 830113],36
6,830104 (kT*kA*kA*dG*d[5mC]*d[5mC]*d[5mC]*dG*d[5mC]*dT*d[5mC]*dT*d[5mC]*kA*kG*k[5mC]; antisense) [compound 830104],28
7,798771 (k[5mC]*k[5mC]*kG*dA*dG*dG*dA*dA*dT*dG*d[5mC]*d[5mC]*dT*kG*kA*kG; antisense) [compound 798771],62
8,830093 (k[5mC]*kT*k[5mC]*dA*dT*dT*dA*dG*dT*d[5mC]*d[5mC]*d[5mC]*dA*kT*kG*kA; antisense) [compound 830093],5
9,798818 (kT*kA*kT*dG*d[5mC]*d[5mC]*dA*d[5mC]*d[5mC]*dA*d[5mC]*dG*d[5mC]*kA*k[5mC]*k[5mC]; antisense) [compound 798818],63
10,799925 (antisense k[5mC]*k[5mC]*kA*dA*dG*d[5mC]*d[5mC]*dT*dA*d[5mC]*dA*dT*dA*kT*kT*kT) [compound 799925],10
11,830096 (kA*kA*k[5mC]*dA*dA*d[5mC]*dA*dT*d[5mC]*d[5mC]*dT*dG*dA*kG*k[5mC]*kG; antisense) [compound 830096],44
12,800047 (antisense kA*k[5mC]*k[5mC]*d[5mC]*dA*d[5mC]*dT*dG*dA*dA*dA*d[5mC]*d[5mC]*kT*kG*kG) [compound 800047],28

# Same assay, conditions: Hep3B cells, electroporation with 10,000 nM antisense oligonucleotide, approximately 24 hours, primer probe set RTS5062, relative to untreated control cells
Substance,% inhibition of SMAD7 mRNA expression [%],% Inhibition [%]
799419 (antisense kA*kA*kA*dA*dA*dT*dT*d[5mC]*dA*dA*d[5mC]*d[5mC]*dT*kA*kA*kG) [compound 799419],0,–
799245 (kG*kT*kA*dT*d[5mC]*dT*dG*dG*dG*d[5mC]*d[5mC]*dA*d[5mC]*kT*kG*kG; antisense) [compound 799245],18,–
799068 (antisense kG*kA*k[5mC]*dA*dA*dG*dG*dA*dT*dG*dA*dA*dA*kA*kT*kA) [compound 799068],49,–
798969 (antisense kT*kG*k[5mC]*d[5mC]*dG*dA*dT*d[5mC]*dA*dT*dA*d[5mC]*d[5mC]*kT*kG*k[5mC]) [compound 798969],48,–
798707 (antisense kG*k[5mC]*kT*d[5mC]*dG*dG*d[5mC]*dT*dG*dT*d[5mC]*d[5mC]*dG*kT*k[5mC]*kG) [compound 798707],74,–
799023 (kT*kG*kG*dG*dA*d[5mC]*dT*dG*d[5mC]*dA*dA*dA*d[5mC]*k[5mC]*kT*k[5mC]; antisense) [compound 799023],42,–
799216 (kT*kA*kT*dT*dA*dA*dA*dG*d[5mC]*dA*dA*dA*dG*kT*kG*k[5mC]; antisense) [compound 799216],49,–
799226 (kA*kA*kA*dA*d[5mC]*dA*d[5mC]*d[5mC]*dA*dA*dT*d[5mC]*dT*kT*kG*kT; antisense) [compound 799226],–,15
799115 (antisense kA*k[5mC]*kA*d[5mC]*dA*dG*dG*dA*dT*dG*dG*dG*dA*kG*k[5mC]*kA) [compound 799115],–,40
799022 (kG*kG*kG*dA*d[5mC]*dT*dG*d[5mC]*dA*dA*dA*d[5mC]*d[5mC]*kT*k[5mC]*kT; antisense) [compound 799022],–,61

# Same assay, conditions: Hep3B cells, electroporation, 10,000 nM antisense oligonucleotide, approximately 24 hours, RTS5062, relative to untreated control cells
row,Substance,% inhibition of SMAD7 mRNA expression [%]
1,799754 (antisense kG*kG*k[5mC]*dT*dA*dA*dG*dT*dG*d[5mC]*d[5mC]*dA*dG*kG*kT*kG) [compound 799754],0
2,799574 (k[5mC]*kA*kT*dT*d[5mC]*dA*dG*dG*dG*dT*dT*dT*dA*kA*kA*kA; antisense) [compound 799574],7

# Same assay, conditions: SMAD7 mRNA, Hep3B cells, 10,000 nM antisense oligonucleotide, electroporation, approximately 24 hours, primer probe set RTS5062, relative to untreated control cells
row,Substance,% Inhibition [%]
1,829731 (antisense kA*kG*k[5mC]*dA*dG*dG*d[5mC]*dG*d[5mC]*dA*dG*dG*d[5mC]*kG*kA*k[5mC]) [compound 829731],50
2,829789 (kA*k[5mC]*kT*dT*d[5mC]*d[5mC]*dG*dA*dG*dG*dA*dA*dT*kG*k[5mC]*k[5mC]; antisense) [compound 829789],42
3,772714 (kA*kG*kG*dT*dG*dA*dT*dA*dA*d[5mC]*dA*d[5mC]*d[5mC]*k[5mC]*kA*kT; antisense) [compound 772714],0
4,772711 (kA*kA*kA*d[5mC]*dA*d[5mC]*d[5mC]*dA*dA*dT*d[5mC]*dT*dT*kG*kT*kG; antisense) [compound 772711],0
5,772535 (antisense k[5mC]*k[5mC]*kG*d[5mC]*dA*d[5mC]*dA*d[5mC]*d[5mC]*dA*dT*dG*dA*kA*kG*kA) [compound 772535],29
6,790674 (kT*kG*k[5mC]*dT*dA*d[5mC]*d[5mC]*dT*dA*dA*dT*dG*dT*k[5mC]*kA*kA; antisense) [compound 790674],40

# Same assay, conditions: SMAD7 mRNA, Hep3B cells, electroporation with 10,000 nM antisense oligonucleotide, approximately 24 hours, primer probe set RTS5062, relative to untreated control cells
row,Substance,% Inhibition [%]
1,829961 (kT*kG*kA*dT*dT*dA*dT*dT*dA*dA*dT*dG*dG*kT*k[5mC]*kT; antisense) [compound 829961],14
2,829802 (kT*kT*k[5mC]*dG*d[5mC]*dA*dG*dA*dG*dT*d[5mC]*dG*dG*k[5mC]*kT*kA; antisense) [compound 829802],28
3,830009 (antisense kG*kT*kG*dT*dT*dA*dA*dA*dG*d[5mC]*dT*dG*dA*kG*k[5mC]*k[5mC]) [compound 830009],52
4,829930 (k[5mC]*kA*k[5mC]*d[5mC]*dA*dA*dT*d[5mC]*dT*dT*dG*dT*dG*kT*kT*kT; antisense) [compound 829930],0
